Reference: PubChem BioAssay AID1259407 (Chemical Carcinogenesis Research Information System (CCRIS), 2018)
Calls of active or inactive are those of the source. The rule behind the calls is not given here.

Test system: CCRIS mutagenicity, Ames/micronucleus/aberration tests
Assay: CCRIS mutagenicity studies

SMILES: CCOC(N)=O
- mutagenic call (End Point: IN VITRO MICRONUCLEUS, Test System: CHL/IU CELLS, Metabolic Activation: RAT, LIVER, S-9, PHENOBARBITAL AND 5,6-BENZOFLAVONE): inactive; negative
- mutagenic call (End Point: IN VITRO MICRONUCLEUS, Test System: V79 CELLS, Metabolic Activation: NONE): inactive; negative
- mutagenic call (End Point: IN VIVO MICRONUCLEUS, Test System: BLOOD PERIPHERAL POLYCHROMATIC AND NORMOCHROMATIC ERYTHROCYTES, Species: MICE, Strain/Sex: CYP2E1+/+ WILD TYPE/MALE, Route: ORAL (GAVAGE)): active; positive for both types of cells
- mutagenic call (End Point: IN VIVO MICRONUCLEUS, Test System: BLOOD PERIPHERAL POLYCHROMATIC AND NORMOCHROMATIC ERYTHROCYTES, Species: MOUSE, Strain/Sex: CYP2E1-/- KO (KNOCKOUT)/MALE, Route: ORAL (GAVAGE)): inactive; negative for nce; equivocal for pce
- mutagenic call (End Point: IN VIVO MICRONUCLEUS, Test System: ERYTHROCYTES, Species: MOUSE, Strain/Sex: WILD-TYPE (CYP2E1+/+, WT)/MALE, Route: GAVAGE): active; positive; significant dose-dependent increase in both polychromatic and normochr
- mutagenic call (End Point: IN VIVO MICRONUCLEUS, Test System: PERIPHERAL BLOOD ERYTHROCYTES, Species: MOUSE, Strain/Sex: KNOCK OUT (CYP2E1-/-, KO)/MALE, Route: GAVAGE): inactive; negative (normochromatic erythrocytes); authors described results in polychromat
- mutagenic call (Test System: AMES SALMONELLA TYPHIMURIUM, Strain/Indicator: TA97, Metabolic Activation: HAMSTER, LIVER, S-9, AROCLOR 1254 (30%), Method: PREINCUBATION): inactive; negative
- mutagenic call (Test System: AMES SALMONELLA TYPHIMURIUM, Strain/Indicator: TA97, Metabolic Activation: NONE, Method: PREINCUBATION): inactive; negative
- mutagenic call (Test System: AMES SALMONELLA TYPHIMURIUM, Strain/Indicator: TA97, Metabolic Activation: RAT, LIVER, S-9, AROCLOR 1254 (30%), Method: PREINCUBATION): inactive; negative
- mutagenic call (Test System: AMES SALMONELLA TYPHIMURIUM, Strain/Indicator: TA98, Metabolic Activation: HAMSTER, LIVER, S-9, AROCLOR 1254 (30%), Method: PREINCUBATION): inactive; negative
- mutagenic call (Test System: AMES SALMONELLA TYPHIMURIUM, Strain/Indicator: TA98, Metabolic Activation: NONE, Method: PREINCUBATION): inactive; negative
- mutagenic call (Test System: AMES SALMONELLA TYPHIMURIUM, Strain/Indicator: TA98, Metabolic Activation: RAT LIVER S-9, AROCLOR 1254, Method: PREINCUBATION): inactive; negative
- mutagenic call (Test System: AMES SALMONELLA TYPHIMURIUM, Strain/Indicator: TA98, Metabolic Activation: RAT, LIVER, S-9, AROCLOR 1254 (30%), Method: PREINCUBATION): inactive; negative
- mutagenic call (Test System: AMES SALMONELLA TYPHIMURIUM, Strain/Indicator: TA98, Metabolic Activation: RAT, LIVER, S-9, ETHANOL, Method: PREINCUBATION): inactive; negative
- mutagenic call (Test System: AMES SALMONELLA TYPHIMURIUM, Strain/Indicator: TA98, Metabolic Activation: RAT, LIVER, S-9, PYRAZOLE, Method: PREINCUBATION): inactive; negative
- mutagenic call (Test System: AMES SALMONELLA TYPHIMURIUM, Strain/Indicator: TA98, Metabolic Activation: RAT, LIVER, S-9, Method: STANDARD PLATE): inactive; negative
- mutagenic call (Test System: AMES SALMONELLA TYPHIMURIUM, Strain/Indicator: TA100, Metabolic Activation: HAMSTER, LIVER, S-9, AROCLOR 1254 (5, 10 OR 30%), Method: PREINCUBATION): inactive; negative
- mutagenic call (Test System: AMES SALMONELLA TYPHIMURIUM, Strain/Indicator: TA100, Metabolic Activation: NONE, Method: PREINCUBATION): inactive; negative
- mutagenic call (Test System: AMES SALMONELLA TYPHIMURIUM, Strain/Indicator: TA100, Metabolic Activation: RAT LIVER S-9, AROCLOR 1254, Method: PREINCUBATION): inactive; negative
- mutagenic call (Test System: AMES SALMONELLA TYPHIMURIUM, Strain/Indicator: TA100, Metabolic Activation: RAT, LIVER, S-9, AROCLOR 1254 (5, 10 OR 30%), Method: PREINCUBATION): inactive; negative
- mutagenic call (Test System: AMES SALMONELLA TYPHIMURIUM, Strain/Indicator: TA100, Metabolic Activation: RAT, LIVER, S-9, ETHANOL, Method: PREINCUBATION): inactive; negative
- mutagenic call (Test System: AMES SALMONELLA TYPHIMURIUM, Strain/Indicator: TA100, Metabolic Activation: RAT, LIVER, S-9, PYRAZOLE, Method: PREINCUBATION): inactive; negative
- mutagenic call (Test System: AMES SALMONELLA TYPHIMURIUM, Strain/Indicator: TA100, Metabolic Activation: RAT, LIVER, S-9, Method: STANDARD PLATE): inactive; negative
- mutagenic call (Test System: AMES SALMONELLA TYPHIMURIUM, Strain/Indicator: TA102, Metabolic Activation: NONE, Method: PREINCUBATION): inactive; negative
- mutagenic call (Test System: AMES SALMONELLA TYPHIMURIUM, Strain/Indicator: TA102, Metabolic Activation: RAT LIVER S-9, AROCLOR 1254, Method: PREINCUBATION): inactive; negative
- mutagenic call (Test System: AMES SALMONELLA TYPHIMURIUM, Strain/Indicator: TA102, Metabolic Activation: RAT LIVER S-9, PHENOBARBITAL AND 5,6-BENZOFLAVONE, Method: STANDARD PLATE): inactive; negative
- mutagenic call (Test System: AMES SALMONELLA TYPHIMURIUM, Strain/Indicator: TA102, Metabolic Activation: RAT, LIVER, S-9, ETHANOL, Method: PREINCUBATION): inactive; negative
- mutagenic call (Test System: AMES SALMONELLA TYPHIMURIUM, Strain/Indicator: TA102, Metabolic Activation: RAT, LIVER, S-9, PYRAZOLE, Method: PREINCUBATION): inactive; negative
- mutagenic call (Test System: AMES SALMONELLA TYPHIMURIUM, Strain/Indicator: TA1535, Metabolic Activation: HAMSTER, LIVER, S-9, AROCLOR 1254 (30%), Method: PREINCUBATION): active; positive
- mutagenic call (Test System: AMES SALMONELLA TYPHIMURIUM, Strain/Indicator: TA1535, Metabolic Activation: NONE, Method: PREINCUBATION): inactive; negative
- mutagenic call (Test System: AMES SALMONELLA TYPHIMURIUM, Strain/Indicator: TA1535, Metabolic Activation: RAT, LIVER, S-9, AROCLOR 1254 (5 OR 10%), Method: PREINCUBATION): inactive; negative
- mutagenic call (Test System: AMES SALMONELLA TYPHIMURIUM, Strain/Indicator: TA1535, Metabolic Activation: RAT, LIVER, S-9, AROCLOR 1254 (30%), Method: PREINCUBATION): inactive; negative
- mutagenic call (Test System: AMES SALMONELLA TYPHIMURIUM, Strain/Indicator: TA1535, Metabolic Activation: RAT, LIVER, S-9, ETHANOL, Method: PREINCUBATION): inactive; negative
- mutagenic call (Test System: AMES SALMONELLA TYPHIMURIUM, Strain/Indicator: TA1535, Metabolic Activation: RAT, LIVER, S-9, PYRAZOLE, Method: PREINCUBATION): inactive; negative
- mutagenic call (Test System: AMES SALMONELLA TYPHIMURIUM, Strain/Indicator: TA1537, Metabolic Activation: HAMSTER, LIVER, S-9, AROCLOR 1254 (30%), Method: PREINCUBATION): inactive; negative
- mutagenic call (Test System: AMES SALMONELLA TYPHIMURIUM, Strain/Indicator: TA1537, Metabolic Activation: NONE, Method: PREINCUBATION): inactive; negative
- mutagenic call (Test System: AMES SALMONELLA TYPHIMURIUM, Strain/Indicator: TA1537, Metabolic Activation: RAT, LIVER, S-9, AROCLOR 1254 (30%), Method: PREINCUBATION): inactive; negative
- mutagenic call (Test System: AMES SALMONELLA TYPHIMURIUM, Strain/Indicator: TA1537, Metabolic Activation: RAT, LIVER, S-9, PYRAZOLE, Method: PREINCUBATION): inactive; negative
- mutagenic call (Test System: AMES SALMONELLA TYPHIMURIUM, Strain/Indicator: TA2638, Metabolic Activation: RAT LIVER S-9, PHENOBARBITAL AND 5,6-BENZOFLAVONE, Method: STANDARD PLATE): inactive; negative
- mutagenic call (Test System: Ames Salmonella typhimurium, Strain/Indicator: YG7108pin3ERb5, Metabolic Activation: None, Method: Standard plate): inactive; negative
- mutagenic call (Test System: E. COLI, Strain/Indicator: WP2 (PKM101), Metabolic Activation: RAT LIVER S-9, PHENOBARBITAL AND 5,6-BENZOFLAVONE, Method: STANDARD PLATE): inactive; negative
- mutagenic call (Test System: E. COLI, Strain/Indicator: WP2 UVRA (PKM101), Metabolic Activation: RAT LIVER S-9, PHENOBARBITAL AND 5,6-BENZOFLAVONE, Method: STANDARD PLATE): inactive; negative
- mutagenic call (Test System: E. COLI, Strain/Indicator: WP2 UVRA, Metabolic Activation: NONE, Method: FLUCTUATION TEST): inactive; negative
- mutagenic call (Test System: MOUSE LYMPHOMA, Strain/Indicator: L5178Y (TK+/TK-), Metabolic Activation: NONE, Method: MICROWELL): inactive; negative
- mutagenic call (Test System: MOUSE LYMPHOMA, Strain/Indicator: L5178Y (TK+/TK-), Metabolic Activation: S-9, Method: MICROWELL): inactive; negative
- mutagenic call (Test System: UDS MOUSE SPERMATIDS, Strain/Indicator: THY INCORP, Metabolic Activation: NONE): active; positive

SMILES: CCN(C(C)OC(C)=O)[N+](=O)[O-] (centres undefined)
- mutagenic call (Test System: E. COLI, Strain/Indicator: WP2 (HCR-), Metabolic Activation: NONE): active; positive

SMILES: CN(C)c1nc2c3cccnc3ccc2n1C
- mutagenic call (Test System: AMES SALMONELLA TYPHIMURIUM, Strain/Indicator: TA98, Metabolic Activation: RAT, LIVER, S-9, AROCLOR 1254, Method: PREINCUBATION): active; positive
- mutagenic call (Test System: AMES SALMONELLA TYPHIMURIUM, Strain/Indicator: TA100, Metabolic Activation: RAT, LIVER, S-9, AROCLOR 1254, Method: PREINCUBATION): active; positive
